Test results published in paper PMC7206614, “Photoswitchable ORG25543 Congener Enables Optical Control of Glycine Transporter 2” (ACS Chemical Neuroscience, 2020).
“Also recorded” adds a separate entry of the source.

Key:
GlyT2 [1] = target: T1, GlyT2 (Homo sapiens, UniProt Q9Y345); test: Two-electrode voltage clamp of glycine transport currents in Xenopus laevis oocytes expressing GlyT2; format: cell-based; conditions: for reversibility: restoration of glycine transport currents after washout: inhibition at IC50 concentrations (1: 4 nM, 2: 50 nM), washed with ND96 for 30 min, glycine reapplied at 5 min intervals; for IC50: oocytes expressing GlyT2, Figure 4A, range in brackets, read-out: IC50, reduction of glycine transport currents
T1 construct: expressed in transfected cells; host or cells: Xenopus laevis oocytes injected with in vitro transcribed RNA
T1 sequence (Q9Y345 1-797): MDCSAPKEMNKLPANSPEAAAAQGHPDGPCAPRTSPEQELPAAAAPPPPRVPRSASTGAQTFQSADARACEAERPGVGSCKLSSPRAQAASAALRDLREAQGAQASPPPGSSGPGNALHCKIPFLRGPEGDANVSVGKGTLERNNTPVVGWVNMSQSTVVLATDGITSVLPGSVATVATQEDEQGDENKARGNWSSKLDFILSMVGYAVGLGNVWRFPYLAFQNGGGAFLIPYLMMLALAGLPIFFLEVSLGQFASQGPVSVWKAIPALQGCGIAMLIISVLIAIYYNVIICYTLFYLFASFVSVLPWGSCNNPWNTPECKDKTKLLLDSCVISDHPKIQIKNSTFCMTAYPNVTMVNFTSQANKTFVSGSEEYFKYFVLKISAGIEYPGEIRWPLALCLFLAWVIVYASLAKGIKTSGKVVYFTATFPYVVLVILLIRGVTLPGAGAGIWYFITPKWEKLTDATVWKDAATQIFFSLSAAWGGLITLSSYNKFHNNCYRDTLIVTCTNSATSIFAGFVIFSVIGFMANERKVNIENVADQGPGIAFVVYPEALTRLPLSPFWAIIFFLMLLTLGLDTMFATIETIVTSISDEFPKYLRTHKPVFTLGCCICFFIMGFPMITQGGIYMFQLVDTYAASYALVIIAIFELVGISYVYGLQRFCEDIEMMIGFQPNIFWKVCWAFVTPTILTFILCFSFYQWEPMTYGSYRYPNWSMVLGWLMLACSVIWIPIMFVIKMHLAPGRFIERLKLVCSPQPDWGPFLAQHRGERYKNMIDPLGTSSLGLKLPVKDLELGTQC

GlyT2 [2] = tested on: GlyT2; design: method as in PMID 23962079; conditions: cited from earlier work; for IC50: two-electrode voltage clamp, Xenopus laevis oocytes expressing GlyT2, read-out: IC50 at GlyT2 (potency); for reversibility of GlyT2 inhibition: washout from oocytes expressing GlyT2
[3] = tested on: rodent models of neuropathic pain; conditions: cited from earlier work
[4] = design: method as in PMID 23962079; conditions: cited from earlier work
rodents = conditions: cited from earlier work
mouse spinal cord slices = tested on: mouse spinal cord slices; design: method as in PMID 15235081; conditions: exposure of mouse spinal cord slices for >10 min; cited from earlier work

Row | SMILES | reversibility: restoration of glycine transport currents after washout (GlyT2 [1]) | IC50 (GlyT2 [1]) [nM] | IC50 (GlyT2 [2]) [nM] | reversibility of GlyT2 inhibition (GlyT2 [2]) | analgesia in rodent models of neuropathic pain [3] | blood brain barrier permeability [4] | adverse side effects (rodents; rodent) | EC50 (GlyT2 [1]) [nM] | effect on neuropathic pain (hyperalgesia and allodynia) [3] | effect on inhibitory postsynaptic currents (mouse spinal cord slices) | toxicity on acute dosing in rodents (rodents)
1 | COc1cc(C(=O)NCC2(N(C)C)CCCCC2)ccc1OCc1ccccc1 [compound 2] | restoration of glycine transport currents | 48.5 | 100 | readily reversible; also recorded: allows for restoration of glycine currents | produced analgesia | blood brain barrier permeable | no adverse side effects |  |  |  | 
2 | NCC(=O)O [glycine] |  |  |  |  |  |  |  | 14300 |  |  | 
3 | COc1cc(C(=O)NCC2(N(C)C)CCCC2)cc(OC)c1OCc1ccccc1 [ORG25543] | no reversibility | 3.76 | 20 | irreversible; also recorded: cannot be restored |  |  |  |  | ameliorates both hallmarks of neuropathic pain | long-term reduction of inhibitory postsynaptic currents | excitotoxicity, hyperekplexia-like symptoms, and in severe cases death
